Measured values taken from US12365696B2, “Small-molecule focal adhesion kinase (FAK) inhibitors” (DANA-FARBER CANCER INSTITUTE, INC., priority 2019, dated 2025).
Like-named read-outs stand apart in the source and are kept apart here.

What was measured:
Assay in all cases: KINOMEscan
Format in all cases: binding
FGFR3(G697C) = FGFR3(G697C) (Homo sapiens (Human), UniProt P22607, G697C); conditions: 10000 nM, read-out: Percent Control
CAMK4 = CAMK4 (Homo sapiens (Human), UniProt Q16566); conditions: CAMK4, 10000 nM; read-out: Percent Control
PDPK1 = PDPK1 (Homo sapiens (Human), UniProt O15530); conditions: PDPK1, 10000 nM; read-out: Percent Control
CSNK1E = CSNK1E (Homo sapiens (Human), UniProt P49674); conditions: 10000 nM, read-out: Percent Control
ADCK4 = ADCK4 (Homo sapiens (Human), UniProt Q96D53); conditions: ADCK4, 10000 nM; read-out: Percent Control
PLK4 = PLK4 (Homo sapiens (Human), UniProt O00444); conditions: PLK4, 10000 nM; read-out: Percent Control
KIT = KIT (Homo sapiens (Human), UniProt P10721); conditions: 10000 nM, read-out: Percent Control
HASPIN = HASPIN (Homo sapiens (Human), UniProt Q8TF76); conditions: 10000 nM, read-out: Percent Control
MST2 = MST2 (Homo sapiens (Human), UniProt Q13188); conditions: MST2, 10000 nM; read-out: Percent Control
FER = FER (Homo sapiens (Human), UniProt P16591); conditions: 10000 nM, read-out: Percent Control
TNK1 = TNK1 (Homo sapiens (Human), UniProt Q13470); conditions: TNK1, 10000 nM; read-out: Percent Control
PAK4 = PAK4 (Homo sapiens (Human), UniProt O96013); conditions: PAK4, 10000 nM; read-out: Percent Control
AXL = AXL (Homo sapiens (Human), UniProt P30530); conditions: 10000 nM, read-out: Percent Control
CDKL1 = CDKL1 (Homo sapiens (Human), UniProt Q00532); conditions: CDKL1, 10000 nM; read-out: Percent Control
EGFR(L861Q) = EGFR(L861Q) (Homo sapiens (Human), UniProt P00533, L861Q); conditions: 10000 nM, read-out: Percent Control
PLK3 = PLK3 (Homo sapiens (Human), UniProt Q9H4B4); conditions: PLK3, 10000 nM; read-out: Percent Control
VRK2 = VRK2 (Homo sapiens (Human), UniProt Q86Y07); conditions: VRK2, 10000 nM; read-out: Percent Control
TSSK1B = TSSK1B (Homo sapiens (Human), UniProt Q9BXA7); conditions: 10000 nM, read-out: Percent Control
[1] = target: RPS6KA5(Kin.Dom.2-C-terminal) (Homo sapiens (Human), UniProt O75582); conditions: 10000 nM, read-out: Percent Control
IRAK1 = IRAK1 (Homo sapiens (Human), UniProt P51617); conditions: read-out: Percent Control
RDGFRB = RDGFRB (Homo sapiens (Human), UniProt P09619); conditions: 10000 nM, read-out: Percent Control
PRKD2 = PRKD2 (Homo sapiens (Human), UniProt Q9BZL6); conditions: PRKD2, 10000 nM; read-out: Percent Control
LCK = LCK (Homo sapiens (Human), UniProt P06239); conditions: 10000 nM, read-out: Percent Control
AMPK-alpha2 = AMPK-alpha2 (Homo sapiens (Human), UniProt P54646); conditions: AMPK-alpha2, 10000 nM; read-out: Percent Control
SGK3 = SGK3 (Homo sapiens (Human), UniProt Q96BR1); conditions: SGK3, 10000 nM; read-out: Percent Control
MYO3A = MYO3A (Homo sapiens (Human), UniProt Q8NEV4); conditions: 10000 nM, read-out: Percent Control
MEK3 = MEK3 (Homo sapiens (Human), UniProt P46734); conditions: MEK3, 10000 nM; read-out: Percent Control
PIK3CB = PIK3CB (Homo sapiens (Human), UniProt P42338); conditions: 10000 nM, read-out: Percent Control
MKK7 = MKK7 (Homo sapiens (Human), UniProt O14733); conditions: MKK7, 10000 nM; read-out: Percent Control
MST4 = MST4 (Homo sapiens (Human), UniProt Q9P289); conditions: MST4, 10000 nM; read-out: Percent Control
DDR2 = DDR2 (Homo sapiens (Human), UniProt Q16832); conditions: DDR2, 10000 nM; read-out: Percent Control
GRK3 = GRK3 (Homo sapiens (Human), UniProt P35626); conditions: GRK3, 10000 nM; read-out: Percent Control
[2] = target: ABL1(T315I)-nonphosphorylated (Homo sapiens (Human), UniProt P00519, T315I); conditions: 10000 nM, read-out: Percent Control
EGFR(G719S) = EGFR(G719S) (Homo sapiens (Human), UniProt P00533, G719S); conditions: 10000 nM, read-out: Percent Control

Chain of MST4 (Q9P289 whole entry): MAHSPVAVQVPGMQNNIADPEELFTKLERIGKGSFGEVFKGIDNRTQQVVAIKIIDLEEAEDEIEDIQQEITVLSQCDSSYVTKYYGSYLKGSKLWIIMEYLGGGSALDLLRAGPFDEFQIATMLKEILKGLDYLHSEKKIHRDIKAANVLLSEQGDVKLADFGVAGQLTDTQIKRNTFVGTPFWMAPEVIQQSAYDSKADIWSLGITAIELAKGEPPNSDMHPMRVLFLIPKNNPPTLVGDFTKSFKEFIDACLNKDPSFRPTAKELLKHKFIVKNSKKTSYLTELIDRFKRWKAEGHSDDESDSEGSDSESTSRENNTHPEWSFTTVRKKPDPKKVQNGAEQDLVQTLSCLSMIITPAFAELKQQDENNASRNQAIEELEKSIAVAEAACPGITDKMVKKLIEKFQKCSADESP
Chain of MYO3A (Q8NEV4 whole entry): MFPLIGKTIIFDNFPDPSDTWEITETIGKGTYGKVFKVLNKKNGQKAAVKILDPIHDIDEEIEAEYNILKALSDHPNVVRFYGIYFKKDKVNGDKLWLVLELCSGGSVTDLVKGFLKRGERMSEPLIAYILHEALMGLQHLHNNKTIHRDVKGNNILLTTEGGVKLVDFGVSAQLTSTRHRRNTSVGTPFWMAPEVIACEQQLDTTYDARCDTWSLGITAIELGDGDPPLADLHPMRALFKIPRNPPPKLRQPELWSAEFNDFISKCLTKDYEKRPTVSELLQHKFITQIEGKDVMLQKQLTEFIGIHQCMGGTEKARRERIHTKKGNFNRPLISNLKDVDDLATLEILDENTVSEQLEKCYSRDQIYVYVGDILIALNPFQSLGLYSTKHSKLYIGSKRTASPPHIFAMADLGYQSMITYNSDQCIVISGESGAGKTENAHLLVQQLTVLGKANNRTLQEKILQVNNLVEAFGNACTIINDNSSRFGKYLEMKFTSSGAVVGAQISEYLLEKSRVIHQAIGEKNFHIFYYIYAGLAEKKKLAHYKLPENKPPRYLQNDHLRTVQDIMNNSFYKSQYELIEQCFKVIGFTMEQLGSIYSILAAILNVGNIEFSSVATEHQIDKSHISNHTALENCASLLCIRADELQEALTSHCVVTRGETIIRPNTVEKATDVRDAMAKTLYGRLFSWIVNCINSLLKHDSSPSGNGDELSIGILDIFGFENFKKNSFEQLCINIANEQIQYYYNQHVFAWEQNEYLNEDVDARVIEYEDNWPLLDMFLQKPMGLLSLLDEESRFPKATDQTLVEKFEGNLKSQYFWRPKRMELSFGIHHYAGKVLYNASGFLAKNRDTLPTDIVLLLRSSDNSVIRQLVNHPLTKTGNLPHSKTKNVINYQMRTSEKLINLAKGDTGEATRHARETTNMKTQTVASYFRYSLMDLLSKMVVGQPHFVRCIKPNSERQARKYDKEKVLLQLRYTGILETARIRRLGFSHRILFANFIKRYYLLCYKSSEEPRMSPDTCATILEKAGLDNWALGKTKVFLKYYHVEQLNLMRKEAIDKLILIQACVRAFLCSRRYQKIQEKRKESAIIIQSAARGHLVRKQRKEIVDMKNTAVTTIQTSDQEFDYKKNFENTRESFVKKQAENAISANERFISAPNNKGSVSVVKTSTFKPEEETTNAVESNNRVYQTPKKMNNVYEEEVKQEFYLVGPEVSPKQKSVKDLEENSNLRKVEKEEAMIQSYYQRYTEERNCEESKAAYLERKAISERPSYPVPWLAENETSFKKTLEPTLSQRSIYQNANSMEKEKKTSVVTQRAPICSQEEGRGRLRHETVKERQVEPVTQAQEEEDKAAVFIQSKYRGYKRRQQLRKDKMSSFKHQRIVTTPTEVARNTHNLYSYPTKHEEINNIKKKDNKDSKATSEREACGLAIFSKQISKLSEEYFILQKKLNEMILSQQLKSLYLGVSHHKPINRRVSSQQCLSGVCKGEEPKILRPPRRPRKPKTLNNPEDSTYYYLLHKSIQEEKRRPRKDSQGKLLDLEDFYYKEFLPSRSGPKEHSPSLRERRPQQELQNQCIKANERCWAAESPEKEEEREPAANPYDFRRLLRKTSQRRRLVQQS
Chain of SGK3 (Q96BR1 whole entry): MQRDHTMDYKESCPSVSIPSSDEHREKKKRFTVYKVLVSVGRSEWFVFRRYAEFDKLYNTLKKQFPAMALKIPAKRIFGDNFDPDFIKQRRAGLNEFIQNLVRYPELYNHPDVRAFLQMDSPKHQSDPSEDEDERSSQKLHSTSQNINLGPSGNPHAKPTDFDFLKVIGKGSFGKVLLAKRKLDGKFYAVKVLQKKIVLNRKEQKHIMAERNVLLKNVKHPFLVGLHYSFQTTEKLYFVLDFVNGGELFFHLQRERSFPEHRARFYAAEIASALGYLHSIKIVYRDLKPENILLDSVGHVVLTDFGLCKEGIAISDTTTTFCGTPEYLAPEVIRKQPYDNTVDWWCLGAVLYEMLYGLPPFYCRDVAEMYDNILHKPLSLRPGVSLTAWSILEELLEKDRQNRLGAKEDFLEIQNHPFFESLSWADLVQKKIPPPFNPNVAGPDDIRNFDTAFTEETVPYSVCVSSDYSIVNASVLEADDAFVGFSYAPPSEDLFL
Chain of TNK1 (Q13470 whole entry): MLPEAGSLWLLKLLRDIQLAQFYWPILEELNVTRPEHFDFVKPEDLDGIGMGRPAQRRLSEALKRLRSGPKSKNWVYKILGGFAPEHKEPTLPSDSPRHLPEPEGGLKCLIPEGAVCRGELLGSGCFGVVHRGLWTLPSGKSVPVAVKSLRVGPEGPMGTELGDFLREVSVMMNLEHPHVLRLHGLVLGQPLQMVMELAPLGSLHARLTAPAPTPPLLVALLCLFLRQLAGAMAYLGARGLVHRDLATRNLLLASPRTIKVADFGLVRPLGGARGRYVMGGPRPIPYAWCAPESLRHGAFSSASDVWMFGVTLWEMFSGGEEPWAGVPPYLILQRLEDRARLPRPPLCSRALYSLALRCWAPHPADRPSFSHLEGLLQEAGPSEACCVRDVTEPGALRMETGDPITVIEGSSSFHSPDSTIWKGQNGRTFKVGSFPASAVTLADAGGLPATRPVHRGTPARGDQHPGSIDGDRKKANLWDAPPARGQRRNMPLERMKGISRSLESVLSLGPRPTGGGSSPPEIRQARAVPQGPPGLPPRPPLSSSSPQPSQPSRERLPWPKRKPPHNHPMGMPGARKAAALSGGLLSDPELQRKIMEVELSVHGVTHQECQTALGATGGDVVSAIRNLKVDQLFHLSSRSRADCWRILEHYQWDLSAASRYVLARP
Chain of FER (P16591 whole entry): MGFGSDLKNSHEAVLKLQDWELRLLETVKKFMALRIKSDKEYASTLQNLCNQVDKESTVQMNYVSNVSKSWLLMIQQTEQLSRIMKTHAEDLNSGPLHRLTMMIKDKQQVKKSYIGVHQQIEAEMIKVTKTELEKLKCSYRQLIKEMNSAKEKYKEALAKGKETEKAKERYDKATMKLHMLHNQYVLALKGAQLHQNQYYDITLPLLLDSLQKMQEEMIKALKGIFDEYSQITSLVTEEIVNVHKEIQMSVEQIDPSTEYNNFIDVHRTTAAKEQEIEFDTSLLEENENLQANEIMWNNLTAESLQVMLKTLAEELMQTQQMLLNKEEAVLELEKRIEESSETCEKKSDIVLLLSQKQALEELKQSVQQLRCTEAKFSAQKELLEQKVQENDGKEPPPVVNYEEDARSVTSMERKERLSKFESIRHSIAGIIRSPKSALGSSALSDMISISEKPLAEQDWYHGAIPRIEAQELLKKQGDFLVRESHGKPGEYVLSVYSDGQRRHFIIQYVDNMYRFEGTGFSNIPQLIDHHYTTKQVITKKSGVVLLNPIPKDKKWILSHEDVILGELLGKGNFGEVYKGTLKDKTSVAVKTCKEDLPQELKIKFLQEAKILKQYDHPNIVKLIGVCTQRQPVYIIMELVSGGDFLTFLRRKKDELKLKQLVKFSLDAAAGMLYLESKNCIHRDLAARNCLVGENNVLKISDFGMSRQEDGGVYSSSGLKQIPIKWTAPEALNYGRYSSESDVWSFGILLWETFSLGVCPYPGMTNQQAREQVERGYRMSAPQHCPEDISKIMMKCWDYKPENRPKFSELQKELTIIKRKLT
Chain of FGFR3(G697C) (P22607 23-806 G697C): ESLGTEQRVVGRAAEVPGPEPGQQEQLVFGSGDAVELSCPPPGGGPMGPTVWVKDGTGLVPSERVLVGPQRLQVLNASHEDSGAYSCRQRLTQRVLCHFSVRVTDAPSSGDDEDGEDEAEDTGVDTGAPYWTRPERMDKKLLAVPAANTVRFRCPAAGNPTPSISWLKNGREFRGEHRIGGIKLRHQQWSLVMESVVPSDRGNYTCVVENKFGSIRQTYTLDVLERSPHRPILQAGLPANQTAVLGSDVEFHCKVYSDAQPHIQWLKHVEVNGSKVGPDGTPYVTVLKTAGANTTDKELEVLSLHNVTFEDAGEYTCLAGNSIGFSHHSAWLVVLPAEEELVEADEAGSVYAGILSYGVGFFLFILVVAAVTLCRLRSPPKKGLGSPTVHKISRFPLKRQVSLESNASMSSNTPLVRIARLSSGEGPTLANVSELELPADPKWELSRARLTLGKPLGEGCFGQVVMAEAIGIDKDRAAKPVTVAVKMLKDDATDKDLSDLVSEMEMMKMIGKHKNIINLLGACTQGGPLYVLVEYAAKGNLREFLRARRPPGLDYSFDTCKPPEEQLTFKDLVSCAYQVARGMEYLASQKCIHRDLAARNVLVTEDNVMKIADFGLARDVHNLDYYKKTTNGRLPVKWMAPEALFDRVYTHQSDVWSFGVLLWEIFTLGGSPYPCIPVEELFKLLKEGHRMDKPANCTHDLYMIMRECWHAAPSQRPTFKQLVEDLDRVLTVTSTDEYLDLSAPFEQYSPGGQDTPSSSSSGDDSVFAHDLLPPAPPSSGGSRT
Chain of RPS6KA5(Kin.Dom.2-C-terminal) (O75582 426-687): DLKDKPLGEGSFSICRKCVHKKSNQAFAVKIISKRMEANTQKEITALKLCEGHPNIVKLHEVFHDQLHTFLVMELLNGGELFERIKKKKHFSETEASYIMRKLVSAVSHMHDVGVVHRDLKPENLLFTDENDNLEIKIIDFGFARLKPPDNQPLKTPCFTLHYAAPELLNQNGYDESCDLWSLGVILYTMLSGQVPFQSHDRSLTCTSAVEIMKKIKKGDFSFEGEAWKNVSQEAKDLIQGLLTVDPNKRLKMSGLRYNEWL

Structure (SMILES)	remaining binding at 10 µM (FGFR3(G697C))	remaining binding at 10 µM (CAMK4)	remaining binding at 10 µM (PDPK1)	remaining binding at 10 µM (CSNK1E)	remaining binding at 10 µM (ADCK4)	remaining binding at 10 µM (PLK4)	remaining binding at 10 µM (KIT)	remaining binding at 10 µM (HASPIN)	remaining binding at 10 µM (MST2)	remaining binding at 10 µM (FER)	remaining binding at 10 µM (TNK1)	remaining binding at 10 µM (PAK4)	remaining binding at 10 µM (AXL)	remaining binding at 10 µM (CDKL1)	remaining binding at 10 µM (EGFR(L861Q))	remaining binding at 10 µM (PLK3)	remaining binding at 10 µM (VRK2)	remaining binding at 10 µM (TSSK1B)	remaining binding at 10 µM [1]	remaining binding at 10 µM (PRKD2)	also measured
COc1cc(N2CCC(N3CCN(C)CC3)CC2)ccc1Nc1ncc2c(n1)N(C)c1sc(C)nc1C(=O)N2 [Compound 3, 6-((2-methoxy-4-(4-(4-methylpiperazin-1-yl)piperidin-1-yl)phenyl)amino)-2,4-dimethyl-4,9-dihydro-10H-pyrimido[5,4-b]thiazolo[5,4-e][1,4]diazepin-10-one]	78%	98%	76%	82%	83%	81%	54%	96%	100%	74%	53%	65%	100%	72%	38%	52%	91%	74%	72%	72%	remaining binding at 10 µM (IRAK1; IRAK1, 10000 nM): 100%; remaining binding at 10 µM (RDGFRB; RDGFRB): 50%; remaining binding at 10 µM (LCK): 45%; remaining binding at 10 µM (AMPK-alpha2): 83%; remaining binding at 10 µM (SGK3): 100%; remaining binding at 10 µM (MYO3A): 79%; remaining binding at 10 µM (MEK3): 92%; remaining binding at 10 µM (PIK3CB): 97%; remaining binding at 10 µM (MKK7): 100%; remaining binding at 10 µM (MST4): 100%; remaining binding at 10 µM (DDR2): 100%; remaining binding at 10 µM (GRK3): 100%; remaining binding at 10 µM [2]: 100%; remaining binding at 10 µM (EGFR(G719S)): 48%
COc1cc(N2CCC(N3CCN(C)CC3)CC2)ccc1Nc1ncc2c(n1)N(C)c1sc(C)nc1C(=O)N2C [Compound 5, 6-((2-methoxy-4-(4-(4-methylpiperazin-1-yl)piperidin-1-yl)phenyl)amino)-2,4,9-trimethyl-4,9-dihydro-10H-pyrimido[5,4-b]thiazolo[5,4-e][1,4]diazepin-10-one]	100%	100%	96%	100%	73%	19%	100%	89%	100%	57%	10%	100%	97%	80%	100%	20%	97%	68%	63%	46%	remaining binding at 10 µM (IRAK1; IRAKI, 10000 nM): 100%; remaining binding at 10 µM (RDGFRB; PDGFRB): 100%; remaining binding at 10 µM (LCK): 100%; remaining binding at 10 µM (AMPK-alpha2): 100%; remaining binding at 10 µM (SGK3): 100%; remaining binding at 10 µM (MYO3A): 100%; remaining binding at 10 µM (MEK3): 100%; remaining binding at 10 µM (PIK3CB): 87%; remaining binding at 10 µM (MKK7): 100%; remaining binding at 10 µM (MST4): 100%; remaining binding at 10 µM (DDR2): 100%; remaining binding at 10 µM (GRK3): 81%; remaining binding at 10 µM [2]: 100%; remaining binding at 10 µM (EGFR(G719S)): 100%
